Experimental data from patent US20100075957A1, “AMINODIHYDROTHIAZINE DERIVATIVES SUBSTITUTED WITH A CYCLIC GROUP” (SHIONOGI & CO., LTD., priority 2007, published 2010).

Molecular target: T1, Recombinant human BACE-1 (Homo sapiens, UniProt P56817)
T1 construct: purchased R&D Systems
Experiment: Assay of β-secretase-inhibiting activity;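 further: substrate is a peptide carrying biotin and europium cryptate, after the enzyme reaction, Streptavidin-XL665 is added and incubated 1 h at 30 °C before fluorescence reading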
Type: biochemical
Conditions: Recombinant human BACE-1 7.4 nM, substrate peptide 18 nM, pH 5.0, 30° C., 3 hours; Table 139; read-out: IC50

T1 sequence (P56817 46-501): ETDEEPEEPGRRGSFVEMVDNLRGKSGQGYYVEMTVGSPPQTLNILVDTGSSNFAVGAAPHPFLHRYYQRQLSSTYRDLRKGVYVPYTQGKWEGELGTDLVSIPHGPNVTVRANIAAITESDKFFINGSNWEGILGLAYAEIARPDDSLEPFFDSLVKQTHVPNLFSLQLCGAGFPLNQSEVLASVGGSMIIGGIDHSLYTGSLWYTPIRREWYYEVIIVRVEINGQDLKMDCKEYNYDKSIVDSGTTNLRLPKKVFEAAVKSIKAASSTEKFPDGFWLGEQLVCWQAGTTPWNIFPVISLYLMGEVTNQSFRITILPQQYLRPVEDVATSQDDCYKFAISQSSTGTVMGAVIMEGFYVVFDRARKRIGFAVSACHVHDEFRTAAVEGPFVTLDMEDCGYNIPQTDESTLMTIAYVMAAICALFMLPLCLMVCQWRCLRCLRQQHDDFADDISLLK

| IC50 | Compound |
| --- | --- |
| 6.79 µM | C[C@@]1(c2cc(NC(=O)CSc3nccc(O)n3)ccc2F)CCSC(N)=N1 [Compound 163] |
| 0.08 µM | COCCOCCOc1cnc(C(=O)Nc2ccc(F)c([C@]3(C)CCSC(N)=N3)c2)cn1 [Compound 164] |

| Compound | IC50 |
| --- | --- |
| C[C@@]1(c2cc(NC(=O)CCc3ccc(O)c(O)c3)ccc2F)CCSC(N)=N1 [Compound 155] | 5.96 µM |

Same assay, conditions: Recombinant human BACE-1 7.4 nM, substrate peptide 18 nM, pH 5.0, 30° C., 3 hours; Table 140; read-out: IC50

| Compound | IC50 |
| --- | --- |
| Cc1nc(C(=O)Nc2cncc([C@]3(C)CCSC(N)=N3)c2)c(C)o1 [Compound 461] | 0.03 µM |
| Cc1cc2cc(NC(=O)c3ccc(OCCO)cn3)cc([C@]3(C)CCSC(N)=N3)c2o1 [Compound 464] | 0.43 µM |
| Cc1cnc(C(=O)Nc2cc([C@]3(C)CCSC(N)=N3)c3oc(C)cc3c2)cn1 [Compound 468] | 0.02 µM |
| COc1cc(C(=O)Nc2cncc([C@]3(C)CCSC(N)=N3)c2)n(C)n1 [Compound 473] | 0.17 µM |
| Cn1nc(Cl)cc1C(=O)Nc1cncc([C@]2(C)CCSC(N)=N2)c1 [Compound 478] | 0.08 µM |
| Cc1nnsc1C(=O)Nc1ccc(F)c([C@]2(C)CCSC(N)=N2)c1 [Compound 481] | 0.05 µM |
| C[C@@]1(c2cc(NC(=O)c3nc4cnccc4[nH]3)ccc2F)CCSC(N)=N1 [Compound 484] | 0.29 µM |
| Cc1ncc(C(=O)Nc2ccc(F)c([C@]3(C)CCSC(N)=N3)c2)s1 [Compound 508] | 0.04 µM |

The remaining lines, values ahead:

| IC50 | Compound |
| --- | --- |
| 0.26 µM | Cc1cc(C(=O)Nc2ccc(F)c([C@]3(C)CCSC(N)=N3)c2)nn1C [Compound 488] |
| 0.09 µM | C[C@@]1(c2cc(NC(=O)c3ncc(O)cc3F)ccc2F)CCSC(N)=N1 [Compound 491] |
| 0.03 µM | Cn1cc(-c2cnc(C(=O)Nc3ccc(F)c([C@]4(C)CCSC(N)=N4)c3)cn2)cn1 [Compound 494] |
| 0.09 µM | Cc1nc(Br)sc1C(=O)Nc1cncc([C@]2(C)CCSC(N)=N2)c1 [Compound 497] |
| 0.04 µM | C[C@@]1(c2cc(NC(=O)c3cn4ccccc4n3)ccc2F)CCSC(N)=N1 [Compound 502] |
| 0.03 µM | Cc1nc(C(=O)Nc2ccc(F)c([C@]3(C)CCSC(N)=N3)c2)cs1 [Compound 505] |
| 0.24 µM | C[C@@]1(c2cncc(NC(=O)c3ccc(Br)s3)c2)CCSC(N)=N1 [Compound 514] |
| 0.13 µM | C[C@@]1(c2cc(NC(=O)c3cnc(Cl)cn3)ccc2Br)CCSC(N)=N1 [Compound 517] |
| 0.18 µM | C[C@@]1(c2cc(NC(=O)c3cc4nccnc4s3)ccc2F)CCSC(N)=N1 [Compound 521] |
| 0.09 µM | CC(=O)c1ccc(C(=O)Nc2ccc(F)c([C@]3(C)CCSC(N)=N3)c2)s1 [Compound 530] |
| 0.02 µM | C[C@@]1(c2cc(NC(=O)c3cnc(-c4ccsc4)cn3)ccc2F)CCSC(N)=N1 [Compound 537] |

Same assay, conditions: Recombinant human BACE-1 7.4 nM, substrate peptide 18 nM, pH 5.0, 30° C., 3 hours; time-resolved fluorescence ratio 665/620; read-out: IC50 values (50% inhibitory concentration against the enzymatic activity)

| Compound | IC50 |
| --- | --- |
| C[C@@]1(c2cc(NC(=O)c3nccnc3C(N)=O)ccc2F)CCSC(N)=N1 [Compound 157] | ≤ 1 µM |
| C[C@@]1(c2cc(NC(=O)c3cnc(-c4ccoc4)cn3)ccc2F)CCSC(N)=N1 [Compound 158] | ≤ 1 µM |
| C[C@@]1(c2cc(NC(=O)c3cnc(/C=C/CO)cn3)ccc2F)CCSC(N)=N1 [Compound 162] | ≤ 1 µM |
| C[C@@]1(c2cc(NC(=O)c3ncc(OCC(F)(F)F)nc3N)ccc2F)CCSC(N)=N1 [Compound 165] | ≤ 1 µM |
| Cc1nc(C(=O)Nc2ccc(F)c([C@]3(C)CCSC(N)=N3)c2)co1 [Compound 462] | ≤ 1 µM |
| Cc1cc(C(=O)Nc2ccc(F)c([C@]3(C)CCSC(N)=N3)c2)n(C)n1 [Compound 463] | ≤ 1 µM |
| COCCOc1cnc(C(=O)Nc2cc([C@]3(C)CCSC(N)=N3)c3oc(C)cc3c2)cn1 [Compound 465] | ≤ 1 µM |
| Cc1cc(C(=O)Nc2cncc([C@]3(C)CCSC(N)=N3)c2)n(C(C)(C)C)n1 [Compound 466] | ≤ 1 µM |
| C[C@@]1(c2cc(NC(=O)c3coc(Cl)n3)ccc2F)CCSC(N)=N1 [Compound 467] | ≤ 1 µM |
| CC#CCOc1cnc(C(=O)Nc2cc([C@]3(C)CCSC(N)=N3)c3oc(C)cc3c2)cn1 [Compound 469] | ≤ 1 µM |
| C[C@@]1(c2cc(NC(=O)c3coc(CCl)n3)ccc2F)CCSC(N)=N1 [Compound 470] | ≤ 1 µM |
| Cc1nc(C(=O)Nc2ccc(F)c([C@]3(C)CCSC(N)=N3)c2)c(C(F)(F)F)o1 [Compound 471] | ≤ 1 µM |
| C[C@@]1(c2cc(NC(=O)C3=NNC(=O)CC3)ccc2F)CCSC(N)=N1 [Compound 472] | ≤ 1 µM |
| Cc1cc(C(=O)Nc2cncc([C@]3(C)CCSC(N)=N3)c2)on1 [Compound 474] | ≤ 1 µM |
| CN1N=C(C(=O)Nc2ccc(F)c([C@]3(C)CCSC(N)=N3)c2)CCC1=O [Compound 475] | ≤ 1 µM |
| Cc1cc(C(=O)Nc2cncc([C@]3(C)CCSC(N)=N3)c2)n(C)n1 [Compound 476] | ≤ 1 µM |
| CCN1N=C(C(=O)Nc2ccc(F)c([C@]3(C)CCSC(N)=N3)c2)CCC1=O [Compound 477] | ≤ 1 µM |

| Compound | IC50 |
| --- | --- |
| CCn1nc(C)cc1C(=O)Nc1cncc([C@]2(C)CCSC(N)=N2)c1 [Compound 479] | ≤ 1 µM |
| Cc1cc(C(=O)Nc2cncc([C@]3(C)CCSC(N)=N3)c2)c(C)o1 [Compound 482] | ≤ 1 µM |
| Cc1ccc(C(=O)Nc2cncc([C@]3(C)CCSC(N)=N3)c2)s1 [Compound 485] | ≤ 1 µM |
| Cc1cccnc1C(=O)Nc1ccc(F)c([C@]2(C)CCSC(N)=N2)c1 [Compound 503] | ≤ 1 µM |
| Cc1cc(C(=O)Nc2ccc(F)c([C@]3(C)CCSC(N)=N3)c2)ns1 [Compound 507] | ≤ 1 µM |
| Cc1ncc(C(=O)Nc2ccc(F)c([C@]3(C)CCSC(N)=N3)c2)s1 [Compound 508] | ≤ 1 µM |
| C[C@@]1(c2cc(NC(=O)c3ncccc3F)ccc2F)CCSC(N)=N1 [Compound 510] | ≤ 1 µM |
| C[C@@]1(c2cc(NC(=O)c3ncccc3F)ccc2F)CCSC(N)=N1 [Compound 511] | ≤ 1 µM |
| Cc1ccoc1C(=O)Nc1ccc(F)c([C@]2(C)CCSC(N)=N2)c1 [Compound 518] | ≤ 1 µM |
| Cc1ccc(C(=O)Nc2ccc(F)c([C@]3(C)CCSC(N)=N3)c2)s1 [Compound 532] | ≤ 1 µM |
| Cc1csc(C(=O)Nc2ccc(F)c([C@]3(C)CCSC(N)=N3)c2)c1 [Compound 533] | ≤ 1 µM |
| C[C@@]1(c2cc(NC(=O)c3cc4ccccc4[nH]3)ccc2F)CCSC(N)=N1 [Compound 536] | ≤ 1 µM |
| C[C@@]1(c2cc(NC(=O)c3cc4cccnc4s3)ccc2F)CCSC(N)=N1 [Compound 539] | ≤ 1 µM |
| C[C@@]1(c2cc(NC(=O)c3cc4ccccc4o3)ccc2F)CCSC(N)=N1 [Compound 540] | ≤ 1 µM |
| C[C@@]1(c2cc(NC(=O)c3cc4ccccc4s3)ccc2F)CCSC(N)=N1 [Compound 545] | ≤ 1 µM |
| C[C@@]1(c2cc(NC(=O)c3cc4cc(C(F)(F)F)ccc4s3)ccc2F)CCSC(N)=N1 [Compound 546] | ≤ 1 µM |

Now from value to compound:

| IC50 | Compound |
| --- | --- |
| ≤ 1 µM | Cc1csc(C(=O)Nc2cncc([C@]3(C)CCSC(N)=N3)c2)c1 [Compound 486] |
| ≤ 1 µM | Cc1ccsc1C(=O)Nc1cncc([C@]2(C)CCSC(N)=N2)c1 [Compound 487] |
| ≤ 1 µM | COc1cnc(C(=O)Nc2ccc(F)c([C@]3(C)CCSC(N)=N3)c2)c(OC)c1 [Compound 489] |
| ≤ 1 µM | C[C@@]1(c2cc(NC(=O)c3ccc(Cl)nn3)ccc2F)CCSC(N)=N1 [Compound 490] |
| ≤ 1 µM | Cc1cnc(C(=O)Nc2ccc(Br)c(C3(C)CCSC(N)=N3)c2)cn1 (stereo not shown) [Compound 492] |
| ≤ 1 µM | CSc1ccc(C(=O)Nc2cncc([C@]3(C)CCSC(N)=N3)c2)s1 [Compound 493] |
| ≤ 1 µM | CCc1cc(C(=O)Nc2ccc(F)c([C@]3(C)CCSC(N)=N3)c2)on1 [Compound 495] |
| ≤ 1 µM | C[C@@]1(c2cc(NC(=O)c3c[nH]nc3C3CC3)ccc2F)CCSC(N)=N1 [Compound 499] |
| ≤ 1 µM | Cc1noc(C)c1C(=O)Nc1ccc(F)c([C@]2(C)CCSC(N)=N2)c1 [Compound 500] |
| ≤ 1 µM | Cc1nc(C(=O)Nc2cncc([C@]3(C)CCSC(N)=N3)c2)c(C(F)(F)F)o1 [Compound 501] |
| ≤ 1 µM | C[C@@]1(c2cncc(NC(=O)c3ccc(Cl)s3)c2)CCSC(N)=N1 [Compound 504] |
| ≤ 1 µM | Cc1ncsc1C(=O)Nc1ccc(F)c([C@]2(C)CCSC(N)=N2)c1 [Compound 506] |
| ≤ 1 µM | C[C@@]1(c2cc(NC(=O)c3cnc(-c4ccc[nH]4)cn3)ccc2F)CCSC(N)=N1 [Compound 509] |
| ≤ 1 µM | COc1cnc(C(=O)Nc2ccc(F)c([C@]3(C)CCSC(N)=N3)c2)c(F)c1 [Compound 512] |
| ≤ 1 µM | C[C@@]1(c2cncc(NC(=O)c3sccc3Br)c2)CCSC(N)=N1 [Compound 515] |
| ≤ 1 µM | C[C@@]1(c2cncc(NC(=O)c3cc(Br)cs3)c2)CCSC(N)=N1 [Compound 516] |
| ≤ 1 µM | C[C@@]1(c2cc(NC(=O)c3cnc(-c4nccs4)cn3)ccc2F)CCSC(N)=N1 [Compound 519] |
| ≤ 1 µM | CC(C)c1nnsc1C(=O)Nc1ccc(F)c(C2(C)CCSC(N)=N2)c1 (stereo not shown) [Compound 520] |
| ≤ 1 µM | COCc1ccc(C(=O)Nc2ccc(F)c([C@]3(C)CCSC(N)=N3)c2)o1 [Compound 522] |
| ≤ 1 µM | Cc1noc(C)c1-c1cnc(C(=O)Nc2ccc(F)c([C@]3(C)CCSC(N)=N3)c2)cn1 [Compound 523] |
| ≤ 1 µM | COc1cscc1C(=O)Nc1ccc(F)c([C@]2(C)CCSC(N)=N2)c1 [Compound 524] |
| ≤ 1 µM | CCOc1cnc(C(=O)Nc2ccc(F)c([C@]3(C)CCSC(N)=N3)c2)c(OCC)c1 [Compound 528] |
| ≤ 1 µM | Cc1cc(C(=O)Nc2ccc(F)c([C@]3(C)CCSC(N)=N3)c2)oc1C [Compound 529] |
| ≤ 1 µM | Cc1nc(-c2ccc(C(=O)Nc3ccc(F)c([C@]4(C)CCSC(N)=N4)c3)cc2)no1 [Compound 531] |
| ≤ 1 µM | Cc1cscc1-c1cnc(C(=O)Nc2ccc(F)c([C@]3(C)CCSC(N)=N3)c2)cn1 [Compound 541] |
| ≤ 1 µM | COc1cnc(C(=O)Nc2cncc([C@]3(C)CCSC(N)=N3)c2)cn1 [Compound 547] |
| ≤ 1 µM | COc1cnc(C(=O)Nc2ccnc([C@]3(C)CCSC(N)=N3)c2)cn1 [Compound 548] |
